Measurements taken from ChEMBL document CHEMBL3885881, “DrugMatrix”.

Species: Rattus norvegicus
Assay: DrugMatrix - Regimen: Daily Repeat
Type: toxicity, organism-based, Sprague-Dawley
Set-up: regimen Daily Repeat, gender Male, age 6-8 weeks
Details: in vivo, po, 0.3 mg/kg, route oral GAVAGE, dose level Low, vehicle .5 % CMC; for ABSOLUTE BASOPHIL / ABSOLUTE EOSINOPHIL / ABSOLUTE LYMPHOCYTE / ABSOLUTE MONOCYTE / ABSOLUTE SEGMENTED NEUTROPHIL / BASOPHIL / EOSINOPHIL / ERYTHROCYTE COUNT / HEMATOCRIT / HEMOGLOBIN / LEUKOCYTE COUNT / LYMPHOCYTE / MEAN CORPUSCULAR HEMOGLOBIN / MEAN CORPUSCULAR HEMOGLOBIN CONCENTRATION / MEAN CORPUSCULAR VOLUME / MONOCYTE / NEUTROPHIL / NUCLEATED RED BLOOD CELLS / PLATELET COUNT: tissue Blood; for ALANINE AMINOTRANSFERASE / ALBUMIN / ALKALINE PHOSPHATASE / ASPARTATE AMINOTRANSFERASE / BLOOD UREA NITROGEN / CARBON DIOXIDE / CHLORIDE / CHOLESTEROL / CREATINE PHOSPHOKINASE / CREATININE / GLUCOSE / LACTATE DEHYDROGENASE / LIPASE / PHOSPHORUS / POTASSIUM / SODIUM / TOTAL BILIRUBIN / TOTAL PROTEIN / URIC ACID: tissue Plasma

For `Nc1c(CC(=O)O)cccc1C(=O)c1ccc(Br)cc1` [BROMFENAC], the “ABSOLUTE BASOPHIL” value (72 h, time 3 day) was 0 CELLS/uL, the “ABSOLUTE EOSINOPHIL” value (72 h, time 3 day) was 0 CELLS/uL and the “ABSOLUTE LYMPHOCYTE” value (72 h, time 3 day) was 8435.67 CELLS/uL. For the same compound, the “ABSOLUTE MONOCYTE” value (72 h, time 3 day) was 96.67 CELLS/uL, the “ABSOLUTE SEGMENTED NEUTROPHIL” value (72 h, time 3 day) was 1134.33 CELLS/uL and the BASOPHIL (72 h, time 3 day) was 0%. The EOSINOPHIL (72 h, time 3 day) was 0%, the “ERYTHROCYTE COUNT” value (72 h, time 3 day) was 5.55 x10E6/uL and the HEMATOCRIT (72 h, time 3 day) was 35.1%. The HEMOGLOBIN (72 h, time 3 day) was 13.07 G/DL, the “LEUKOCYTE COUNT” value (72 h, time 3 day) was 9.67 x10E3/uL and the LYMPHOCYTE (72 h, time 3 day) was 88%. The “MEAN CORPUSCULAR HEMOGLOBIN” value (72 h, time 3 day) was 23.57 pg, the “MEAN CORPUSCULAR HEMOGLOBIN CONCENTRATION” value (72 h, time 3 day) was 37.2 G/DL and the “MEAN CORPUSCULAR VOLUME” value (72 h, time 3 day) was 63.33 fL. For the same compound, the MONOCYTE (72 h, time 3 day) was 1%, the NEUTROPHIL (72 h, time 3 day) was 11% and the “NUCLEATED RED BLOOD CELLS” value (72 h, time 3 day) was 0 /100WBC. For the same compound, the “PLATELET COUNT” value (72 h, time 3 day) was 1028.33 x10E3/uL, the “ALANINE AMINOTRANSFERASE” value (72 h, time 3 day) was 48.33 u/L and the ALBUMIN (72 h, time 3 day) was 4.43 G/DL. For the same compound, the “ALKALINE PHOSPHATASE” value (72 h, time 3 day) was 514.33 u/L, the “ASPARTATE AMINOTRANSFERASE” value (72 h, time 3 day) was 96 u/L and the “BLOOD UREA NITROGEN” value (72 h, time 3 day) was 15.67 mg/dL. For the same compound, the “CARBON DIOXIDE” value (72 h, time 3 day) was 31.33 mmol/L, the CHLORIDE (72 h, time 3 day) was 101.5 MEQ/L and the CHOLESTEROL (72 h, time 3 day) was 68.67 mg/dL. The “CREATINE PHOSPHOKINASE” value (72 h, time 3 day) was 316.33 u/L, the CREATININE (72 h, time 3 day) was 0.23 mg/dL and the GLUCOSE (72 h, time 3 day) was 142 mg/dL. For the same compound, the “LACTATE DEHYDROGENASE” value (72 h, time 3 day) was 121.67 u/L, the LIPASE (72 h, time 3 day) was 9.67 u/L and the PHOSPHORUS (72 h, time 3 day) was 11.03 mg/dL. For the same compound, the POTASSIUM (72 h, time 3 day) was 5.91 MEQ/L, the SODIUM (72 h, time 3 day) was 144.65 MEQ/L and the “TOTAL BILIRUBIN” value (72 h, time 3 day) was 0.1 mg/dL. The “TOTAL PROTEIN” value (72 h, time 3 day) was 6.13 G/DL, the “URIC ACID” value (72 h, time 3 day) was 0.67 mg/dL and the “ABSOLUTE BASOPHIL” value (120 h, time 5 day) was 0 CELLS/uL. For the same compound, the “ABSOLUTE EOSINOPHIL” value (120 h, time 5 day) was 0 CELLS/uL, the “ABSOLUTE LYMPHOCYTE” value (120 h, time 5 day) was 10092.67 CELLS/uL and the “ABSOLUTE MONOCYTE” value (120 h, time 5 day) was 194 CELLS/uL. For the same compound, the “ABSOLUTE SEGMENTED NEUTROPHIL” value (120 h, time 5 day) was 1180 CELLS/uL, the BASOPHIL (120 h, time 5 day) was 0% and the EOSINOPHIL (120 h, time 5 day) was 0%. The “ERYTHROCYTE COUNT” value (120 h, time 5 day) was 5.77 x10E6/uL, the HEMATOCRIT (120 h, time 5 day) was 37.27% and the HEMOGLOBIN (120 h, time 5 day) was 13.97 G/DL. For the same compound, the “LEUKOCYTE COUNT” value (120 h, time 5 day) was 11.47 x10E3/uL, the LYMPHOCYTE (120 h, time 5 day) was 87.33% and the “MEAN CORPUSCULAR HEMOGLOBIN” value (120 h, time 5 day) was 24.17 pg. The “MEAN CORPUSCULAR HEMOGLOBIN CONCENTRATION” value (120 h, time 5 day) was 37.5 G/DL, the “MEAN CORPUSCULAR VOLUME” value (120 h, time 5 day) was 64.5 fL and the MONOCYTE (120 h, time 5 day) was 1.33%. For the same compound, the NEUTROPHIL (120 h, time 5 day) was 11.33%, the “NUCLEATED RED BLOOD CELLS” value (120 h, time 5 day) was 0 /100WBC and the “PLATELET COUNT” value (120 h, time 5 day) was 1201.33 x10E3/uL. The “ALANINE AMINOTRANSFERASE” value (120 h, time 5 day) was 48.67 u/L, the ALBUMIN (120 h, time 5 day) was 4.57 G/DL and the “ALKALINE PHOSPHATASE” value (120 h, time 5 day) was 385 u/L. The “ASPARTATE AMINOTRANSFERASE” value (120 h, time 5 day) was 86.33 u/L, the “BLOOD UREA NITROGEN” value (120 h, time 5 day) was 15.67 mg/dL and the “CARBON DIOXIDE” value (120 h, time 5 day) was 35.33 mmol/L. The CHLORIDE (120 h, time 5 day) was 99.67 MEQ/L, the CHOLESTEROL (120 h, time 5 day) was 83.67 mg/dL and the “CREATINE PHOSPHOKINASE” value (120 h, time 5 day) was 586 u/L. The CREATININE (120 h, time 5 day) was 0.2 mg/dL, the GLUCOSE (120 h, time 5 day) was 151 mg/dL and the “LACTATE DEHYDROGENASE” value (120 h, time 5 day) was 148.33 u/L. It also gave an LIPASE (120 h, time 5 day) of 9.33 u/L, a PHOSPHORUS (120 h, time 5 day) of 10.9 mg/dL and a POTASSIUM (120 h, time 5 day) of 6.38 MEQ/L. The SODIUM (120 h, time 5 day) was 143.9 MEQ/L, the “TOTAL BILIRUBIN” value (120 h, time 5 day) was 0.2 mg/dL and the “TOTAL PROTEIN” value (120 h, time 5 day) was 6.77 G/DL. The “URIC ACID” value (120 h, time 5 day) was 0.8 mg/dL.
